Results from PubChem BioAssay AID328 (DTP/NCI, 2004).
“And” between values parts separate entries of the source, which are not always exact repeats. Identical values can stand only once. Inconclusive results and toxic doses are left out. Rule for the calls: active = survival T/C of 150% or more; inactive = T/C below 125% in these data.

Test system: BDF1 mice, P388 leukemia ip, median survival T/C
Test: NCI In Vivo Anticancer Drug Screen. Data for tumor model P388 Leukemia (intraperitoneal) in B6D2F1 (BDF1) mice
Details: endpoint: median survival time, higher = longer survival
Summary of the method: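 Each value expresses how treatment altered survival: treated-mouse outcome over vehicle-mouse outcome, both groups bearing the transplanted tumour.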

[1] = dose: 50.0 mg/kg/injection, schedule: Q01DX009 (ip), vehicle: saline with Tween-80
[2] = dose: 100.0 mg/kg/injection, schedule: Q01DX009 (ip), vehicle: saline with Tween-80
[3] = dose: 200.0 mg/kg/injection, schedule: Q01DX009 (ip), vehicle: saline with Tween-80
[4] = dose: 25.0 mg/kg/injection, schedule: Q01DX009 (ip), vehicle: saline with Tween-80
[5] = dose: 100.0 mg/kg/injection, schedule: Q04DX003 (ip), vehicle: saline with Tween-80
[6] = dose: 200.0 mg/kg/injection, schedule: Q04DX003 (ip), vehicle: saline with Tween-80
[7] = dose: 400.0 mg/kg/injection, schedule: Q04DX003 (ip), vehicle: saline with Tween-80

Measured: T/C

C=C(C)C(=O)NCC(=O)Oc1ccc([N+](=O)[O-])cc1
inactive: [1] 86 % of control | [2] 102 % of control | [3] 93 % of control

CN1C(=O)c2ccccc2CC12c1ccccc1C(=O)N2C (centres undefined)
inactive: dose: 50.0 mg/kg/injection, schedule: Q01DX005 (ip), vehicle: saline with Tween-80 86 % of control | dose: 200.0 mg/kg/injection, schedule: Q01DX005 (ip), vehicle: saline with Tween-80 86 % of control

COC(=O)CCCc1ccc(OC)c(OC)c1
inactive: dose: 12.5 mg/kg/injection, schedule: Q01DX009 (ip), vehicle: saline with Tween-80 96 % of control | [4] 100 % of control | [1] 97 % of control and 123 % of control | [2] 97 % of control and 113 % of control | [3] 105 % of control

COc1ccc2cc3[n+](cc2c1OC)CCc1cc2c(cc1-3)OCO2
inactive: dose: 1.0 mg/kg/injection, schedule: Q01DX010 (ip), vehicle: steriod suspending solution 104 % of control | dose: 2.0 mg/kg/injection, schedule: Q01DX010 (ip), vehicle: steriod suspending solution 122 % of control | dose: 6.0 mg/kg/injection, schedule: Q01DX010 (ip), vehicle: saline 104 % of control

COc1ccc2c(c1)CCC(C)(C#N)C2=O (centres undefined)
inactive: [4] 100 % of control | [1] 100 % of control | [2] 104 % of control

c1ccc(-c2nn(-c3ccccc3)[n+](-c3cccc4ccccc34)n2)cc1
inactive: dose: 2.0 mg/kg/injection, schedule: Q01DX009 (ip), vehicle: saline with Tween-80 103 % of control | dose: 4.0 mg/kg/injection, schedule: Q01DX009 (ip), vehicle: saline with Tween-80 112 % of control

CCOC(=O)CCCN(c1sc(C)c(C)c1C(=O)OCC)S(=O)(=O)c1ccc(C)cc1
inactive: [4] 104 % of control | [1] 109 % of control | dose: 50.0 mg/kg/injection, schedule: Q04DX003 (ip), vehicle: saline with Tween-80 91 % of control | [2] 104 % of control | [5] 87 % of control | [3] 95 % of control | [6] 95 % of control | [7] 87 % of control

Cc1ccc(-c2nc3cc(Cl)ccc3c(=O)o2)cc1
inactive: [1] 110 % of control | dose: 75.0 mg/kg/injection, schedule: Q01DX009 (ip), vehicle: saline with Tween-80 104 % of control | [2] 100 % of control | [5] 109 % of control | dose: 150.0 mg/kg/injection, schedule: Q01DX009 (ip), vehicle: saline with Tween-80 109 % of control | [3] 120 % of control | [6] 109 % of control | dose: 300.0 mg/kg/injection, schedule: Q01DX009 (ip), vehicle: saline with Tween-80 95 % of control

CC(=O)Oc1ccc(C2C3=C(COC3=O)CC3=C2C(=O)OC3)cc1
inactive: dose: 100.0 mg/kg/injection, schedule: Q01DX007 (ip), vehicle: saline with Tween-80 95 % of control | [5] 100 % of control | dose: 200.0 mg/kg/injection, schedule: Q01DX007 (ip), vehicle: saline with Tween-80 90 % of control | [6] 110 % of control | dose: 400.0 mg/kg/injection, schedule: Q01DX007 (ip), vehicle: saline with Tween-80 100 % of control | [7] 100 % of control

O=C(O)c1ccccc1-c1ccccc1C(=O)O
inactive: [5] 95 % of control | [6] 104 % of control | [7] 104 % of control

O=C(N/N=C/C=C/c1ccccc1)[C@H](O)[C@@H](O)C(=O)N/N=C/C=C/c1ccccc1
inactive: dose: 100.0 mg/kg/injection, schedule: Q01DX009 (ip), vehicle: Klucel (hydroxypropylcellulose) (HPC) 88 % of control | dose: 200.0 mg/kg/injection, schedule: Q01DX009 (ip), vehicle: Klucel (hydroxypropylcellulose) (HPC) 96 % of control | dose: 400.0 mg/kg/injection, schedule: Q01DX009 (ip), vehicle: Klucel (hydroxypropylcellulose) (HPC) 92 % of control

CN(C)c1ccc(C=C2C(=O)CC(C)(C)CC2=O)cc1
inactive: [1] 105 % of control | [2] 95 % of control | [3] 97 % of control

Clc1ccc(-c2cc(=[N+]3CC[N+](=c4cc(-c5ccc(Cl)cc5)ss4)CC3)ss2)cc1
inactive: dose: 50.0 mg/kg/injection, schedule: Q04DX003 (ip), vehicle: water 109 % of control | dose: 100.0 mg/kg/injection, schedule: Q01DX009 (ip), vehicle: water 121 % of control | dose: 100.0 mg/kg/injection, schedule: Q04DX003 (ip), vehicle: water 116 % of control | dose: 200.0 mg/kg/injection, schedule: Q01DX009 (ip), vehicle: water 111 % of control | dose: 200.0 mg/kg/injection, schedule: Q04DX003 (ip), vehicle: water 109 % of control
